{"source": "patent US9295673B2", "about": "“Combination of mTOR inhibitors and P13-kinase inhibitors, and uses thereof” (Intellikine LLC, priority 2011, dated 2016)", "key": {"human tumor cell lines": {"system": "human tumor cell lines", "test": "Tumor cell line proliferation assay", "assay_type": "cell-based", "conditions": "chart (FIG. 13)", "protocol": "The ability of one or more subject compounds to inhibit tumor cell line proliferation is determined according to standard procedures known in the art. For instance, an in vitro cellular proliferation assay can be performed to measure the metabolic activity of live cells. The assay is performed in a 96 well microtiter plate using Alamar Blue reduction. Human tumor cell lines are obtained from ATCC (e.g., MCF7, U-87 MG, MDA-MB-468, PC-3), grown to confluency in T75 flasks, trypsinized with 0.25% trypsin, washed one time with Tumor Cell Media (DMEM+10% FBS), and plated in 90 ul at 5,000 cells/well in Tumor Cell Media. A compound disclosed herein is diluted in Tumor Cell Media and added in a 10 ul volume. Plates are incubated for 72 hours at 37 C and 5% CO2. A volume of 10 uL of Alamar Blue reagent is added to each well and plates are incubated for 3 hours at 37 C and 5% CO2. Alamar Blue fluoresce is read at 560Ex/590Em, and IC50 values are calculated using GraphPad Prism 5."}, "breast cancer model": {"system": "breast cancer model", "test": "Preclinical breast cancer model (tumor weight / volume)", "assay_type": "in vivo"}, "[1]": {"system": "Akt, S6, 4EBP phosphorylation", "test": "Western blot of PI3K pathway phosphorylation (Akt, S6, 4EBP)", "assay_type": "cell-based"}, "B cell function": {"system": "B cell function", "test": "B cell function in vivo (TNP-Ficoll immunization, antibody production)", "parameters": "species or system mouse", "conditions": "mice immunized with TNP-Ficoll; 70 mg/kg GDC0941; 30, 60 or 120 mg/kg Compound A for 7 days (FIG. 8)", "procedure": "Antibody production was measured as a percentage of control group that were treated with vehicle."}, "[2]": {"system": "pAKT(S473) in MDA-MB-361 cells", "test": "Western blot of Akt phosphorylation (pAKT) in MDA-MB-361 cells", "assay_type": "cell-based, human", "conditions": "about 2 hours treatment, read-out: inhibition of pAKT, IC50", "protocol": "(§1) Cells comprising one or more mutations in PI3Kα, including but not limited to breast cancer cells (e.g., MDA-MB-361, T47D, SKOV-3), and cells comprising one or more mutations in PTEN including but not limited to prostate cancer cells (e.g., PC3), are typically grown in cell growth media such as DMEM supplemented with fetal bovine serum and/or antibiotics, and grown to confluency. Cells are then treated with various concentrations of test compound for about 2 hours and subsequently lysed in cell lysis buffer. Lysates are subjected to SDS-PAGE followed by Western blot analysis to detect downstream signaling markers, including but not limited to pAKT(S473), pAKT(T308), pS6, and p4E-BP1.\nMDA-MB-361(PIK3CA-E545K), MDA-MB-453 (PIK3CA-H1047R), and SK-Br3 (Her2) cells were treated with various concentrations of Compound A for 2 h and subsequently lysed. Lysates were subjected to SDS-PAGE followed by Western blot analysis as described above to detect downstream pathway markers."}, "[3]": {"system": "pAKT(S473), pAKT(T308) in PC3 cells", "test": "Western blot of Akt phosphorylation (pAKT) in PC3 cells", "assay_type": "cell-based", "conditions": "PC3 cells, about 2 hours treatment, read-out: inhibition of pAKT, IC50", "protocol": "as §1"}, "MDA-MB-361 cells": {"system": "MDA-MB-361 cells", "test": "Cell proliferation (CellTiter-Glo) in MDA-MB-361 cells", "assay_type": "cell-based, human", "conditions": "read-out: inhibition of cell proliferation, IC50", "protocol": "as §1\nCells were seeded at 5000-10,000 per well in a 96 well flat bottom plate 90 ul growth media. Pre-diluted compound (at 10 times the final concentration) or DMSO (control) was added. The compounds were prepared such that the dose range extended from a final concentration of 30 μM to 14 nM via 3-fold serial dilutions (8 point curve). The final DMSO concentration was 0.3%. […] After 72 hours, proliferation was measured using CellTiter-Glo Luminescent reagent (Promega, PR-G7573). […] Contents were mixed for 30 minutes on an orbital shaker to lyse cells Luminescence was read on a PerkinElmer EnVision plate reader. […] Inhibition % was calculated as: 1−(cells+inhibitor)−background signal)/(cells+DMSO)−background signal)[…]."}, "[4]": {"system": "MDA-MB-361 (PI3Kα/HER2 carcinoma) tumors", "test": "In vivo efficacy in MDA-MB-361 xenograft mouse model of breast cancer", "parameters": "species or system nude mice", "conditions": "70 mg/kg Pan-PI3K inhibitor, 60 mg/kg compound A, FIG. 9 left panel", "protocol": "Blood glucose was monitored periodically following administration of treatment.\nTreatment of tumors (MDA-MB-361) with compounds was discontinued on Day 30. Tumors were measured every 2-5 days."}, "[5]": {"system": "786-O human kidney carcinoma tumors", "test": "In vivo efficacy in 786-O xenograft model", "parameters": "species or system nude mice", "conditions": "oral, FIG. 6"}, "PI3K α": {"molecular_target": "PI3K α (Homo sapiens, UniProt P42336)", "sequence (P42336 whole entry)": "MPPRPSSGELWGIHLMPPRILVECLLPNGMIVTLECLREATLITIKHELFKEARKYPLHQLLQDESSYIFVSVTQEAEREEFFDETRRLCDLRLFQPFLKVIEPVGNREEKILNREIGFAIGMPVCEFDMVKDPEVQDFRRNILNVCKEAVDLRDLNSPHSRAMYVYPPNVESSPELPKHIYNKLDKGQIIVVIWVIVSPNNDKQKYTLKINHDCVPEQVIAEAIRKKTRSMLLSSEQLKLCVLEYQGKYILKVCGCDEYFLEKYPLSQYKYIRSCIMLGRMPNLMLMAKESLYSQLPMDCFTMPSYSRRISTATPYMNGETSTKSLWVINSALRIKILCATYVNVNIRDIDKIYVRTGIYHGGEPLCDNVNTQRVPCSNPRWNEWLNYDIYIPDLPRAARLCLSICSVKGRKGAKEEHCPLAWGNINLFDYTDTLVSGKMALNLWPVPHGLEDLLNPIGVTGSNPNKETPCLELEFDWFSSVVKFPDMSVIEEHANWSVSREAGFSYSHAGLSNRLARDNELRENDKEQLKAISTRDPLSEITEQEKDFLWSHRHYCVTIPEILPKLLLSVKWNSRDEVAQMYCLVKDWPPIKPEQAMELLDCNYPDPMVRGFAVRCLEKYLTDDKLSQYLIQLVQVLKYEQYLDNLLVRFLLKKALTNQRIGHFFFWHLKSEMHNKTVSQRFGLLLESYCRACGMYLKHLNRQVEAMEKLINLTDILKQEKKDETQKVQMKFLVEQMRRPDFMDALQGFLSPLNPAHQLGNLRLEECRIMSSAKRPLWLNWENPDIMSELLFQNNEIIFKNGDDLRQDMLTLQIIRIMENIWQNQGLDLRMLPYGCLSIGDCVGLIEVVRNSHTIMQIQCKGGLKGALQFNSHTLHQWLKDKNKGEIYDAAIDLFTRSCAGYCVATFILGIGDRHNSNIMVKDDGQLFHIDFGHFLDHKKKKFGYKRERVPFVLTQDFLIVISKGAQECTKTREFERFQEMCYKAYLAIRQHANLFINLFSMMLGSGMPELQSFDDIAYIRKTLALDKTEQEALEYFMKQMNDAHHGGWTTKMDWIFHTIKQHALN", "sequence (P27986 whole entry partner)": "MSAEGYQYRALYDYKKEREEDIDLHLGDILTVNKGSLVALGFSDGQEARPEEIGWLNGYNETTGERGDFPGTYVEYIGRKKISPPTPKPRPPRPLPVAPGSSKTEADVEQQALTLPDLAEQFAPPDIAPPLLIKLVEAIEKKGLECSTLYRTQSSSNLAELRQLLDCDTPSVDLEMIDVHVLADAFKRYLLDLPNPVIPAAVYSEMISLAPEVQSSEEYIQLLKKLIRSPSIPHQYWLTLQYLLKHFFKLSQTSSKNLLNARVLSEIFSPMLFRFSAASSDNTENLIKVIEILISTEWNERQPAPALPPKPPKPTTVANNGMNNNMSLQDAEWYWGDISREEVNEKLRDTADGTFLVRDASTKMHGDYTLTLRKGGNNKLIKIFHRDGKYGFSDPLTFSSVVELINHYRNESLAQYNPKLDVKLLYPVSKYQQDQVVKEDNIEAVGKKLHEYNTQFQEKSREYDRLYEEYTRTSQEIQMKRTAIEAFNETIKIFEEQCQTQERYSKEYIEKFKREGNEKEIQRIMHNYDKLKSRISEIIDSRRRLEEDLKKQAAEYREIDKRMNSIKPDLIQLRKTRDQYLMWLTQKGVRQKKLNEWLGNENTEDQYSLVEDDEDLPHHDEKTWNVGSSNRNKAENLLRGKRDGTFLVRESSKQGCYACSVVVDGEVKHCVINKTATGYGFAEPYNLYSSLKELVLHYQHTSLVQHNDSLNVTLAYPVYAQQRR", "test": "PI 3-Kinase (human) HTRF assay, PI3K α", "conditions": "chart (FIG. 6C)"}}}
{"smiles": "Nc1nc2cc(-c3ccc4ncc(C(=O)N5CCOCC5)n4c3)ccc2o1", "note": "[Compound A]", "values": [{"measurement": "proliferation of tumor cells harboring PI3K α mutations", "setting": "human tumor cell lines", "result": "preferentially inhibits"}, {"measurement": "tumor weight of a breast cancer model", "setting": "breast cancer model; 70 mg/kg Pan-PI3K inhibitor, 60 mg/kg compound A (FIG. 9 left)", "result": "reduction in tumor weight"}, {"measurement": "tumor weight in a preclinical breast cancer model", "setting": "breast cancer model; combined treatment with Compound A and Compound B (FIG. 2)", "result": "synergistic effect"}, {"measurement": "reducing tumor volume of a preclinical breast cancer model", "setting": "breast cancer model; combined treatment with Compound A and rapamycin (FIG. 4)", "result": "synergistic effect"}, {"measurement": "inhibition of the PI3K pathway in cell lines with elevated PI3K α activity", "setting": "[1]; MDA-MB-361, MDA-MB-453, SKBr3 breast cancer cells, western blot (FIG. 11)", "result": "inhibition"}, {"measurement": "inhibition of Akt, S6, and 4EBP phosphorylation", "setting": "[1]; PTEN mutant cells, western blot (FIG. 6B)", "result": "not"}, {"measurement": "Akt phosphorylation at serine 473", "setting": "[1]; PTEN-mutant cell line (FIG. 12B)", "result": "reduced inhibition"}, {"measurement": "downregulating Akt and S6 phosphorylation", "setting": "[1]; combined treatment with Compound A and Compound B, western blot (FIG. 3)", "result": "synergistic effect"}, {"measurement": "Akt phosphorylation at serine 473", "setting": "[1]; western blot (FIG. 12A)", "result": "inhibition"}, {"measurement": "B cell function in vivo (antibody production)", "setting": "B cell function", "result": "not"}, {"measurement": "IC50", "setting": "[2]", "result": "~1000", "unit": "nM"}, {"measurement": "IC50", "setting": "[3]", "result": "~10000", "unit": "nM"}, {"measurement": "IC50", "setting": "MDA-MB-361 cells", "result": "~1900", "unit": "nM"}, {"measurement": "tumor weight", "setting": "[4]", "result": "reduction in tumor weight"}, {"measurement": "inhibition of kinase activity (downstream markers) and tumor growth", "setting": "[5]", "result": "decreased activity by comparison to that seen in the MDA derived tumors"}, {"measurement": "specificity in inhibiting PI3K α over mTOR and other PI3K isoforms", "setting": "PI3K α", "result": "specificity"}]}
